Laboratory results published in patent US12479847B2 (DANA-FARBER CANCER INSTITUTE, INC., priority 2019, dated 2025).
Where two headings read alike, the source gives them in different places.

How the values were obtained:
Test in all cases: KINOMEscan (ScanMAX) kinase profiling
Format in all cases: binding
panel of 468 kinases [1] = molecular target: T1, panel of 468 kinases (Homo sapiens, UniProt Q02156); details: PRKCE; 1 μM; read-out: % control
T1 construct: purchased KINOMEscan (ScanMAX) service
T1 sequence (Q02156 1-737): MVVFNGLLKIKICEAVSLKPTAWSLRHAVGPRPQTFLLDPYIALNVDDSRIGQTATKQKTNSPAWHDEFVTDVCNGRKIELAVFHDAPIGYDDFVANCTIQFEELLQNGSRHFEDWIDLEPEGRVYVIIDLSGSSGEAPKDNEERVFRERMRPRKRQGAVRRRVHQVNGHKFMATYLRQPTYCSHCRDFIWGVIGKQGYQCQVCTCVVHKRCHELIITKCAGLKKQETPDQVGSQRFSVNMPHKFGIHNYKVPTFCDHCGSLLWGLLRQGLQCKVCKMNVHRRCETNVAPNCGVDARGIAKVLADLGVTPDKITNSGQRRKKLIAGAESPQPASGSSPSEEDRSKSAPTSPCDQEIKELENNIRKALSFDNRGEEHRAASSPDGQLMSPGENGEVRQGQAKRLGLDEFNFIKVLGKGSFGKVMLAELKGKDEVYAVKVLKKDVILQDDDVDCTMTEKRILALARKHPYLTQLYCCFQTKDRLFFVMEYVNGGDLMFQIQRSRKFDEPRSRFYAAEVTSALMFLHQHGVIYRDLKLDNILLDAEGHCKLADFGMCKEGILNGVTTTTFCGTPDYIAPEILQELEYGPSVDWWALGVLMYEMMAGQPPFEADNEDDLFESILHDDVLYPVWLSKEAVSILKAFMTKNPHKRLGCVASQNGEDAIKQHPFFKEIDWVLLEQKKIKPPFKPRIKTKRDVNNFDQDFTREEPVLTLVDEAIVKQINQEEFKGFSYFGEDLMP

panel of 468 kinases [2] = molecular target: T2, panel of 468 kinases (Homo sapiens, UniProt P21802); details: FGFR2; 1 μM; read-out: % control
T2 construct: purchased KINOMEscan (ScanMAX) service

panel of 468 kinases [3] = molecular target: T3, panel of 468 kinases (Homo sapiens, UniProt Q13164); details: ERK5; 1 μM; read-out: % control
T3 construct: purchased KINOMEscan (ScanMAX) service

panel of 468 kinases [4] = molecular target: T4, panel of 468 kinases (Homo sapiens, UniProt Q13554); details: CAMK2B; 1 μM; read-out: % control
T4 construct: purchased KINOMEscan (ScanMAX) service

panel of 468 kinases [5] = molecular target: T5, panel of 468 kinases (Homo sapiens, UniProt P35590); details: TIE1; 1 μM; read-out: % control
T5 construct: purchased KINOMEscan (ScanMAX) service

panel of 468 kinases [6] = molecular target: T6, panel of 468 kinases (Homo sapiens, UniProt Q15349); details: 1 μM, read-out: % control
T6 construct: purchased KINOMEscan (ScanMAX) service

panel of 468 kinases [7] = molecular target: T7, panel of 468 kinases (Homo sapiens, UniProt P43405); details: SYK; 1 μM; read-out: % control
T7 construct: purchased KINOMEscan (ScanMAX) service

panel of 468 kinases [8] = molecular target: T8, panel of 468 kinases (Homo sapiens, UniProt Q86UX6); details: YANK3; 1 μM; read-out: % control
T8 construct: purchased KINOMEscan (ScanMAX) service

panel of 468 kinases [9] = molecular target: T9, panel of 468 kinases (Homo sapiens, UniProt Q13188); details: MST2; 1 μM; read-out: % control
T9 construct: purchased KINOMEscan (ScanMAX) service
T9 sequence (Q13188 1-491): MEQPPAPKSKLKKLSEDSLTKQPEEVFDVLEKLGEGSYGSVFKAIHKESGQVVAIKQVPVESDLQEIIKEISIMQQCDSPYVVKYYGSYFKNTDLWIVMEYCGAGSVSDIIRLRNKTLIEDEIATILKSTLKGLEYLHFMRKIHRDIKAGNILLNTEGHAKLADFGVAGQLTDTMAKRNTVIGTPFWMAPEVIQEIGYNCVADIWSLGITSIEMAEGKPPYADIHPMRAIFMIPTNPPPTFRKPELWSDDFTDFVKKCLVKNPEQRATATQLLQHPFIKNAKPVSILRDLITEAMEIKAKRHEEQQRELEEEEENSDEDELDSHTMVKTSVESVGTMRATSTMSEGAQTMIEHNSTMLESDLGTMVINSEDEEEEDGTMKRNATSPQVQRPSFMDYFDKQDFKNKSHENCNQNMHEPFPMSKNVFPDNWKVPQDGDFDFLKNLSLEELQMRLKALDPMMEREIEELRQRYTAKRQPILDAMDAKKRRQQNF

panel of 468 kinases [10] = molecular target: T10, panel of 468 kinases (Homo sapiens, UniProt Q13177); details: PAK2; 1 μM; read-out: % control
T10 construct: purchased KINOMEscan (ScanMAX) service
T10 sequence (Q13177 whole entry): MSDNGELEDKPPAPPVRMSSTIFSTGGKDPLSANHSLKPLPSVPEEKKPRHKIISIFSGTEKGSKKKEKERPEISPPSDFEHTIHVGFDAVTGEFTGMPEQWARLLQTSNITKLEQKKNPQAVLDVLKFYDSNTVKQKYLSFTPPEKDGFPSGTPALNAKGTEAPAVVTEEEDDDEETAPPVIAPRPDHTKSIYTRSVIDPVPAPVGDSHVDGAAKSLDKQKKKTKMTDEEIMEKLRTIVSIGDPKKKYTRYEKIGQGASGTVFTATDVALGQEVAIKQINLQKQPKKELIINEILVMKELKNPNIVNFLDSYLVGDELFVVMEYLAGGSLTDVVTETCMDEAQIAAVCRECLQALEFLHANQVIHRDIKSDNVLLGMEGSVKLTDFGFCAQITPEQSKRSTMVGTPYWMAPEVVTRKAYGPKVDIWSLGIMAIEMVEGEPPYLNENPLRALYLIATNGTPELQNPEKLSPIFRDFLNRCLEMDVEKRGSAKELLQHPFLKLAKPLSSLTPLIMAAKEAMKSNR

T4 sequence (Q13554 whole entry): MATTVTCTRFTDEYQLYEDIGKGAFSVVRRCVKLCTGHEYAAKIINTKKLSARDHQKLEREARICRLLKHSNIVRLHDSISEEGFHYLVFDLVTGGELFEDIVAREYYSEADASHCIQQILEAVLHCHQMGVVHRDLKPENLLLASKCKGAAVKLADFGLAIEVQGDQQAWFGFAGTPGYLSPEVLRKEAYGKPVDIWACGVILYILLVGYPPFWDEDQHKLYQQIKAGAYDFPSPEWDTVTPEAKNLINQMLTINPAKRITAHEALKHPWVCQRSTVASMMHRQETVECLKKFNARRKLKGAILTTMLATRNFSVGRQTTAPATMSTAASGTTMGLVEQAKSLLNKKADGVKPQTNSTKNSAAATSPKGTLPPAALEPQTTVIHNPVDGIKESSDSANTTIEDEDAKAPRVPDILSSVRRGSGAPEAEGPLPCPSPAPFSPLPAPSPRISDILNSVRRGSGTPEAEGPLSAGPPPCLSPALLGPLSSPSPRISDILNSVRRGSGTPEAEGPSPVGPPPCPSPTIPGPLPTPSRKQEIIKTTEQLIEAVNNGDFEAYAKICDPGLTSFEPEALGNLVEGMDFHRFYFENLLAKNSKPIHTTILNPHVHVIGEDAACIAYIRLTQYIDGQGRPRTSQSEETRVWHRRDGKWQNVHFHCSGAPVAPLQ
T8 sequence (Q86UX6 whole entry): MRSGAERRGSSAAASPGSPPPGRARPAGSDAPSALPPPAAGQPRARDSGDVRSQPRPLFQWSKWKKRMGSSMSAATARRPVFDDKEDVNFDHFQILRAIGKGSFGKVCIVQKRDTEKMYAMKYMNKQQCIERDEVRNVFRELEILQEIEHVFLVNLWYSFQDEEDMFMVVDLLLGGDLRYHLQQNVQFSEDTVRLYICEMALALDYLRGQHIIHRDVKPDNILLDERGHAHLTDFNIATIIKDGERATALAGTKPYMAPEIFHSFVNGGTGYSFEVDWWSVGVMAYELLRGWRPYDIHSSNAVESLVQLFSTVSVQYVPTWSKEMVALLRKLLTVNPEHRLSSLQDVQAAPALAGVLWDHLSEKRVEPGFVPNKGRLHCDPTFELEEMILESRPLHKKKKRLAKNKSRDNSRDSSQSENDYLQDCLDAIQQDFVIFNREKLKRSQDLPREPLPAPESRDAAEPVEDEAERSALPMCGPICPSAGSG
T3 sequence (Q13164 whole entry): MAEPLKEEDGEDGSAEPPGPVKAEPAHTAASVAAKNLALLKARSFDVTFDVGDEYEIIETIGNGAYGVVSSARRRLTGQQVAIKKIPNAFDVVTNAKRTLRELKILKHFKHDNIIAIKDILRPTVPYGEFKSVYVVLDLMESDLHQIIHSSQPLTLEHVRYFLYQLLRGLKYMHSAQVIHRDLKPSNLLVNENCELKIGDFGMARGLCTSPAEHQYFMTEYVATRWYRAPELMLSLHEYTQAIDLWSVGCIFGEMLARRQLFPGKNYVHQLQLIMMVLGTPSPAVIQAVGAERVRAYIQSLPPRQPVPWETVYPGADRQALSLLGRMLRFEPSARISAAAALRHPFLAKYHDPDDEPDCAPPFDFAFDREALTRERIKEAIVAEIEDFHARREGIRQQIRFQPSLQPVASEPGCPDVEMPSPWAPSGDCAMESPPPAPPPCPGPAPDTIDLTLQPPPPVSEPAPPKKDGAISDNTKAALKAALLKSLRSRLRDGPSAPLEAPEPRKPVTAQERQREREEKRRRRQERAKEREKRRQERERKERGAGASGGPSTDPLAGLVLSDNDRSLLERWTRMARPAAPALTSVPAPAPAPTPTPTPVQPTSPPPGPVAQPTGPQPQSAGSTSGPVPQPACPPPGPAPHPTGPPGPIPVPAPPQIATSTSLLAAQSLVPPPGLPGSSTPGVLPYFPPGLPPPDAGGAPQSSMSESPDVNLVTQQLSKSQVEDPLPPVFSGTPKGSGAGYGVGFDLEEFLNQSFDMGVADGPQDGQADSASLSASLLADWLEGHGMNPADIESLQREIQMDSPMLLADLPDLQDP
T6 sequence (Q15349 whole entry): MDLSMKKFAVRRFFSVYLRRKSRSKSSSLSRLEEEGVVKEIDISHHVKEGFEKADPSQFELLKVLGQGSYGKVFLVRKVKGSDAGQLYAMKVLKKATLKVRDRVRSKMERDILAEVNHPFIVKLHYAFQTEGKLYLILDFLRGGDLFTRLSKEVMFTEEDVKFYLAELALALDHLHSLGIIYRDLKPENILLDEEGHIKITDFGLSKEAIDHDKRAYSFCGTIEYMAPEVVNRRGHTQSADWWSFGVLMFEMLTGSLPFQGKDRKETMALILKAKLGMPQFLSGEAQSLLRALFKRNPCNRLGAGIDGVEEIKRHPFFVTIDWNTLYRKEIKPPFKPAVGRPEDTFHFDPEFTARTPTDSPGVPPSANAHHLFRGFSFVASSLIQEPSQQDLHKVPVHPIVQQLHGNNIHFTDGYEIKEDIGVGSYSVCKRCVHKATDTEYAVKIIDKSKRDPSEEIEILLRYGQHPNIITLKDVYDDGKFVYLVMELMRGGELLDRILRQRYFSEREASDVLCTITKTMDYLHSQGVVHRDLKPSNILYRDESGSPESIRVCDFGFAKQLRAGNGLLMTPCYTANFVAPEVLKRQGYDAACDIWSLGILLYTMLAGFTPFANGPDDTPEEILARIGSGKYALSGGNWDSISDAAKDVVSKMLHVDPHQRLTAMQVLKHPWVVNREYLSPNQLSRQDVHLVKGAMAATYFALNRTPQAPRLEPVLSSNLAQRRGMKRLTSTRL
T5 sequence (P35590 22-1138): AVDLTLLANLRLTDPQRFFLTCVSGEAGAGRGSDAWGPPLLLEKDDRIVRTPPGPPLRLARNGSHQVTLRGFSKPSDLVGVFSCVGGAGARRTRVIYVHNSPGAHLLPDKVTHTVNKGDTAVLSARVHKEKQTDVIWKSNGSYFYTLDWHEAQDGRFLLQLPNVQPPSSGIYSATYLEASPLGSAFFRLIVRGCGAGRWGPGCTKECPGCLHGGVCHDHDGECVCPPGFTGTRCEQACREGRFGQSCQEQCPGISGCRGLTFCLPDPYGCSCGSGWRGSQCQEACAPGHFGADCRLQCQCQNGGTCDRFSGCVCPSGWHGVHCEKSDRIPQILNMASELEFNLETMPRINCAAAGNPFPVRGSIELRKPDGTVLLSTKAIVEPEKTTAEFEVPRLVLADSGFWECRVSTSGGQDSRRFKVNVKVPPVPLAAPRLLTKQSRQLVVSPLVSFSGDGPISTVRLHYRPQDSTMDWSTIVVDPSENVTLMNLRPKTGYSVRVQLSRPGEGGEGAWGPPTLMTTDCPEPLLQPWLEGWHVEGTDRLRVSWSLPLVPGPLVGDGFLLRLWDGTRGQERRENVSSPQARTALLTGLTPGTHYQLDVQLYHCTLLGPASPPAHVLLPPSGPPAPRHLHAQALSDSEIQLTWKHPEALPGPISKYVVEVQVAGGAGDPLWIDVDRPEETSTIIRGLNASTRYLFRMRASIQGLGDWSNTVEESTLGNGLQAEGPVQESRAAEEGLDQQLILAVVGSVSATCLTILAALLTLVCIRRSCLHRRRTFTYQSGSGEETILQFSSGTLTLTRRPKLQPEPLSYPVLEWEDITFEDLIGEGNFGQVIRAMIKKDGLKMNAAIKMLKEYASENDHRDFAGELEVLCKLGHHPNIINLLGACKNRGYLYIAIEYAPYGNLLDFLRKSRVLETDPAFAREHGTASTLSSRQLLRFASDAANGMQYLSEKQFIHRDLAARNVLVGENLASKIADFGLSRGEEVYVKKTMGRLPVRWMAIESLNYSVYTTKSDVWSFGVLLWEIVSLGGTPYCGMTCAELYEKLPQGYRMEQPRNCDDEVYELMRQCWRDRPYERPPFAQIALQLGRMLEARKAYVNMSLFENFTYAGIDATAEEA

| SMILES | remaining binding at 1 µM (panel of 468 kinases [1]) [%] | remaining binding at 1 µM (panel of 468 kinases [2]) [%] | remaining binding at 1 µM (panel of 468 kinases [3]) [%] | remaining binding at 1 µM (panel of 468 kinases [4]) [%] | remaining binding at 1 µM (panel of 468 kinases [5]) [%] | remaining binding at 1 µM (panel of 468 kinases [6]; RSK3(Kin.Dom.1-N-terminal)) [%] | remaining binding at 1 µM (panel of 468 kinases [6]; RSK3(Kin.Dom.2-C-terminal)) [%] | remaining binding at 1 µM (panel of 468 kinases [7]) [%] | remaining binding at 1 µM (panel of 468 kinases [8]) [%] | remaining binding at 1 µM (panel of 468 kinases [9]) [%] | remaining binding at 1 µM (panel of 468 kinases [10]) [%] |
| --- | --- | --- | --- | --- | --- | --- | --- | --- | --- | --- | --- |
| CNc1nc(Nc2ccc(S(=O)(=O)N3CCC(N4CCOCC4)CC3)cc2OC)nc2[nH]cc(Cl)c12 [Compound 12, 5-chloro-N2-(2-methoxy-4-((4-morpholinopiperidin-1-yl)sulfonyl)phenyl)-N4-methyl-7H-pyrrolo[2,3-d]pyrimidine-2,4-diamine] | 62 | 100 | 53 | 100 | 100 | 100 | 70 | 55 | 100 | 100 | 100 |
| CNc1nc(Nc2ccc(C(=O)N3CCC(N4CCOCC4)CC3)c3c2OCO3)nc2[nH]cc(Cl)c12 [Compound 75, (7-((5-chloro-4-(methylamino)-7H-pyrrolo[2,3-d]pyrimidin-2-yl)amino)benzo[d][1,3]dioxol-4-yl)(4-morpholinopiperidin-1-yl)methanone] | 73 | 97 | 51 | 94 | 100 | 100 | 57 | 35 | 100 | 45 | 100 |
| CNc1nc(Nc2ccc(P3(=O)CCN(C4CCOCC4)CC3)cc2OC)nc2[nH]cc(Cl)c12 [Compound 77, 4-(4-((5-chloro-4-(methylamino)-7H-pyrrolo[2,3-d]pyrimidin-2-yl)amino)-3-methoxyphenyl)-1-(tetrahydro-2H-pyran-4-yl)-1,4-azaphosphinane 4-oxide] | 87 | 100 | 78 | 92 | 100 | 100 | 20 | 43 | 100 | 100 | 100 |
